Measured values from paper PMC4872532, “Development of antithrombotic nanoconjugate blocking integrin α2β1-collagen interactions” (Scientific Reports, 2016).
Where no end group is shown, it is not given here.

Tests used:
[1] = system: platelet adhesion on collagen peptide; assay: Platelet solid-phase adhesion assay on collagen peptide; type: cell-based, sheep; conditions: for IC50, concentration required to inhibit half of the specific binding (platelet adhesion): collagen peptide coated 100 μg/mL, inhibitor in normal saline 1 h at 18 °C, washed, platelets 1 h at 18 °C, p-nitrophenyl phosphate read-out 405 nm, L-PGMA NPs concentration = conjugated LWWNSYY
Source text: (§1) Glycidyl methacrylate (97%) and ethylene glycol dimethacrylate (97%) were purchased from Sigma-Aldrich (St. Louis, MO, USA). Dimethy sulfoxide (DMSO), epichlorohydrin (ECH), EG and sodium borohydride (NaBH4) were of analytical grade from Guangfu Fine Chemical Research Institute (Tianjin, China). The triple helix collagen peptide, with an amino acid sequence of (GPO)2GFOGER(GPO)3, was purchased as HPLC-purified powder with a purity of >95% from ChinaPeptides (Shanghai, China). LWWNSYY was obtained as lyophilized powder with a purity of >95% from GL Biochem (Shanghai, China). Sheep blood containing 0.4% sodium citrate (w/v) was purchased from Ruite Bio-tec (Guangzhou, China). Bovine serum albumin (BSA) was purchased from Sigma (St. Louis, MO, USA). ρ-nitrophenylphosphate (PNPP) was purchased from Aladdin Industrial Corporation (Shanghai, China) with a purity of 98%. Sodium chloride (NaCl), tris (hydroxymethyl) aminomethane (Tris) and other reagents were of analytical grade from Sangon Biotech Co., Ltd. (Shanghai, China).
Adhesion was determined colorimetrically, following the procedure reported previously. Anticoagulated sheep blood was obtained by the addition of 0.4% sodium citrate (w/v), allowing about five days for the transportation before the tests. Platelet-rich plasma (PRP) was obtained as the supernatant after centrifugation of the anticoagulated sheep blood at 180 g for 20 min at 4 °C. Then platelet was obtained as the precipitate after centrifugation of PRP at 1000 g for 10 min at 4 °C[12], which was suspended in adhesion buffer (TBS containing 0.1% BSA) to prepare platelet suspension buffer for further use. Microtiter HB 96-well plates (Costar, Corning Inc., USA) were coated with 100 μL collagen peptide (100 μg/mL) dissolved in 0.01 M acetic acid for 4 h at 18 °C. Reagents without adhesion were discarded, and the wells were washed by 200 μL TBS (50 mM Tris-HCl, 140 mM NaCl, 2 mM Mg^2+, pH 7.4) for three times. Then, wells were blocked for 1 h by 100 μL of TBS containing 50 mg/mL BSA. After three washes by 200 μL TBS, 100 μL LWWNSYY or L-PGMA NPs with different concentrations dissolved in normal saline was applied to each well and incubated at 18 °C for 1 h. 100 μL platelet suspension buffer were added to each well after three washes to remove non-reacted inhibitors, and plates were incubated at 18 °C for 1 h. Unbound platelets were then discarded, and the wells were washed as above. 150 μL lysis buffer (0.1 M citrate, pH 5.4, containing 0.1% Triton X-100 and 5 mM p-nitrophenyl phosphate) was added to each well. Reaction was terminated after 1 h by addition of 100 μL NaOH (3 M), and plates were read at 405 nm using an automated plate reader (ELX800, BioTek Instruments Inc., USA). […] The effect of binding to BSA or B-PGMA NPs was eliminated. According to the standard above, the absorption value was transformed to inhibition ratio. Data was presented as the mean ± S.D. from three independent experiments (n = 8). Dose-response inhibition ratio curves were fitted using the Hill equation[48][49]. The concentration of LWWNSYY or L-PGMA NPs required to inhibit half of the specific binding, IC50, and the maximum inhibition ratio, IRmax, were calculated based on the Hill equation[50].

ICR mice = assay: Toxicity assay of inhibitors; type: in vivo; conditions: for toxicity: i.v. 2.5 mg/kg, N = 4, 7 days
Procedure: S4. Toxicity Assay of Inhibitors
Eight specific pathogen free (SPF) ICR mice weighing about 18-22 g (HFK Bioscience Co., Ltd., Beijing, China) were randomly divided into two groups (N=4, half males and half females), and then treated with LWWNSYY or L-PGMA NPs (i.v., 2.5mg/10ml/kg) to investigate their toxicity, respectively. After treatment, animals were maintained under standard conditions with food ad libitum and maintained in a 12 h/12 h light/dark cycle at room temperature. Behavior, mortality and any other clinical signs of mice were observed […]
1.Bullock, A. N. et al., Thermodynamic stability of wild-type and mutant p53 core domain. P. Natl Acad. Sci.

[2] = target: Triple Helical Collagen Peptide (GPO)2GFOGER(GPO)3; assay: Isothermal titration calorimetry, binding to triple helical collagen peptide; conditions: L-PGMA in deionized water containing normal saline concentration, 600 μM collagen peptide, 10 °C, mean ± S.D., N = 3
Procedure: ITC experiments were performed to investigate the thermodynamic binding characteristics of L-PGMA NPs on the triple helical collagen peptide (Fig. 4A). The triple helix collagen peptide containing GFOGER recognition sequence was titrated with L-PGMA NPs. The data of LWWNSYY was also examined and used as control.
as §1
The binding between collagen peptide and LWWNSYY in normal saline or normal saline containing 25% (v/v) EG was investigated following the procedure reported previously, the concentration of collagen peptide in the cell was 80 μM, while the concentration of LWWNSYY was 1.0 mM. To investigate the binding between collagen peptide and L-PGMA NPs in normal saline, the concentration of L-PGMA NPs in the cell was 48 μM (in full text, the concentration of L-PGMA NPs represents the concentration of conjugated LWWNSYY on the surface of L-PGMA NPs in solution), while the concentration of collagen peptide was 600 μM. All samples were treated by 20 min degassing prior to the examination. Isothermal calorimetric titrations were performed in a titration mode with a 1.425 mL sample cell, using a VP isothermal titration calorimeter (MicroCal, Northampton, MA). 8 μL LWWNSYY was injected over 16 s for 30 times, with a spacing time of 350 s between injections. The reference power was set to 20 μcal/s, and the stirring speed was 307 rpm. To reserve the active triple helical form of collagen peptide, the temperature in ITC cell was kept at 10 °C. […] Titration data were analyzed using MicroCal Origin (Version 7.0). […] Consequently, the integrated enthalpy was calculated from the single-site binding model. Thermodynamics parameters, including Kd, ΔH, TΔS, and Gibbs free energy (ΔG) were calculated.

[3] = system: carotid artery thrombus formation; assay: FeCl3-induced carotid artery thrombus formation; type: in vivo, Wistar rats; conditions: 0.625 mg/kg i.v., N = 5
Source text: Adult SPF male Wistar rats weighing 180–220 g were purchased from HFK Bioscience Co. (Beijing, China), and housed in a standard temperature-, light-, and humidity-controlled animal enclosures at the institute of Radiation Medicine in Chinese Academy of Medical Sciences. All rats had free access to food and water, and were acclimated for at least 1 week. The Institute of Radiation Medicine Animal Care and Use Committee approved the protocols for the care and use of animals, and all animal procedures were carried out in accordance with the approved guidelines.
FeCl3-induced arterial injury in rats was performed following the procedure reported previously. Rats were randomly divided into 4 groups (N = 5) and fasted for 12 h before the surgery. They were anesthetized with 10% chloral hydrate (3 mL/kg, i.p.) and placed on a 37 °C warming pad throughout the experiment. The right carotid artery was exposed by blunt dissection with minimal blood loss, and a Doppler flow probe (Transonic T400, USA) was attached to the artery to monitor blood flow continuously. […] After 20 min, the filter paper was removed, and the vessel was washed with normal saline. The blood flow was monitored continuously for 30 min after injury. At the end of 30-minute period, thrombus size was evaluated by the weight. Immediately after the experiment, the rats were sacrificed by cervical dislocation while still under deep anesthesia. Data are expressed as mean ± S.D. Data were analyzed by one-way ANOVA, followed by Duncan’s post hoc test. Statistical significance was set at p < 0.05.

[4] = Particle size and zeta potential by dynamic light scattering; type: physicochemical; conditions: Zetasizer Nano, deionized water, 25 °C, mean ± S.D., N = 3
Procedure: Particle size and zeta potential were measured by dynamic light scattering (DLS) in deionized water at room temperature, as shown in Table 1.
The samples were submitted to size or zeta analysis by injecting them into disposable DLS or zeta potential cuvettes at 25 °C. The results were reported as the average of three repeated experiments.

[5] = UV-VIS quantification of immobilized LWWNSYY; type: physicochemical; conditions: UV-VIS absorption peak at 280 nm; B-PGMA NPs background subtracted
Source text: The chemical conjugation of LWWNSYY onto the surface of PGMA-ECH NPs was examined using fourier transform infrared spectra (FTIR) spectroscopy (Fig. 2). […] This indicates successful chemical conjugation of LWWNSYY onto the surface of PGMA-ECH NPs through the opening of epoxy group. UV-VIS spectra further confirmed formation of L-PGMA NPs (Fig. S1 in Supporting Information), with an absorption peak at 280 nm corresponding to the characteristic absorption of tryptophan residues in LWWNSYY. […] The formation of LWWNSYY clusters due to its high hydrophobicity was then expected to be inhibited.
UV-VIS spectra of L-PGMA NPs were obtained by Lambda 35 (Perkin Elmer, USA) UV-VIS spectrophotometer. Spectra were collected within a range of 200–600 nm. The nanoparticles without conjugated LWWNSYY were denoted as B-PGMA NPs. That is, the value of B-PGMA NPs with the same concentration was subtracted as background in analysis. Data were representative of three repeated experiments.

Triple Helical Collagen Peptide (GPO)2GFOGER(GPO)3, sequence (as listed by the source): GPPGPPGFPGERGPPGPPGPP

Substance | IC50, concentration required to inhibit half of the specific binding (platelet adhesion) ([1]; Hill fit, mean ± S.D., N = 8) [µg/mL] | toxicity (ICR mice) | Kd ([2]; 48 μM L-PGMA NPs in cell (concentration of conjugated LWWNSYY), single-site binding model) [µM] | TΔS ([2]; 48 μM L-PGMA NPs in cell) [kcal/mol] | ΔG ([2]; 48 μM L-PGMA NPs in cell) [kcal/mol] | ΔH ([2]; 48 μM L-PGMA NPs in cell) [kcal/mol] | plateau of inhibition ratio curve, platelet adhesion ([1]; 1–50 μg/mL LWWNSYY, 0.1–40 μg/mL L-PGMA NPs (conjugated LWWNSYY)) [%] | maximum inhibition ratio (IRmax) of platelet adhesion ([1]; Hill fit, 1–50 μg/mL LWWNSYY, 0.1–40 μg/mL L-PGMA NPs (conjugated LWWNSYY) in normal saline, 18 °C, mean ± S.D., N = 8) [%] | IC50 relative to that of free LWWNSYY ([1]; decreased to this fraction of free LWWNSYY IC50) | thrombus weight ([3]; 15 min before 12% FeCl3, 30 min after injury, mean ± S.D., control 7.41 ± 1.75 mg, LWWNSYY p < 0.01, L-PGMA NPs p < 0.001 compared to control, no significant difference between the two) [mg] | occlusion at 30 min ([3]; 15 min before 12% FeCl3) | mean blood flow, relative to initial blood flow ([3]; 15 min before 12% FeCl3, at end of 30-min period, p < 0.001 compared to control or LWWNSYY group) | reduction of thrombus weight compared to the control group ([3]; 30 min after injury) [%] | reduction of thrombus weight compared to LWWNSYY group ([3]; 30 min after injury, difference not significant) [%] | mean blood flow rate at all time points ([3]; compared to the control or LWWNSYY group) | Hydrodynamic diameter ([4]; DLS) [nm] | Polydispersity index ([4]; DLS) | Zeta potential [4] [mV] | immobilized LWWNSYY [5] | clinical signs (ICR mice; 2.5mg/10ml/kg i.v., N = 4 (half males, half females), observed 7 days)
LWWNSYY [LWWNSYY] | 5.66 ± 1.13 | little toxicity |  |  |  |  |  |  |  |  |  |  |  |  |  |  |  |  |  | 
LWWNSYY [L-PGMA NPs, LWWNSYY-PGMA nanoparticles conjugate; LWWNSYY immobilized to the surface of poly(glycidyl methacrylate) nanoparticles] | 1.83 ± 0.29 | little toxicity | 3.45 ± 1.06 | 8.44 ± 0.37 | -7.09 ± 0.16 | 1.35 ± 0.21 | 100 | 102.6 ± 3.4 | 1/3 | 3.70 ± 0.45 | No occlusion was observed | about 85% | ~50 | ~15 | significantly higher | 106.6 ± 0.91 | 0.06 ± 0.02 | −32.9 ± 0.57 | 3.2 ± 0.2 mg in 100 mg of PGMA NPs | no abnormal clinical signs
